The values below come from patent publication US9765091B2, “Tetrahydropyrazolo [3,4-b] azepine derivatives and their use as allosteric modulators of metabotropic glutamate receptors” (Addex Pharma S.A., priority 2010, dated 2017).

Molecules are shown by their SMILES.

T1 sequence (Q14833 33-912): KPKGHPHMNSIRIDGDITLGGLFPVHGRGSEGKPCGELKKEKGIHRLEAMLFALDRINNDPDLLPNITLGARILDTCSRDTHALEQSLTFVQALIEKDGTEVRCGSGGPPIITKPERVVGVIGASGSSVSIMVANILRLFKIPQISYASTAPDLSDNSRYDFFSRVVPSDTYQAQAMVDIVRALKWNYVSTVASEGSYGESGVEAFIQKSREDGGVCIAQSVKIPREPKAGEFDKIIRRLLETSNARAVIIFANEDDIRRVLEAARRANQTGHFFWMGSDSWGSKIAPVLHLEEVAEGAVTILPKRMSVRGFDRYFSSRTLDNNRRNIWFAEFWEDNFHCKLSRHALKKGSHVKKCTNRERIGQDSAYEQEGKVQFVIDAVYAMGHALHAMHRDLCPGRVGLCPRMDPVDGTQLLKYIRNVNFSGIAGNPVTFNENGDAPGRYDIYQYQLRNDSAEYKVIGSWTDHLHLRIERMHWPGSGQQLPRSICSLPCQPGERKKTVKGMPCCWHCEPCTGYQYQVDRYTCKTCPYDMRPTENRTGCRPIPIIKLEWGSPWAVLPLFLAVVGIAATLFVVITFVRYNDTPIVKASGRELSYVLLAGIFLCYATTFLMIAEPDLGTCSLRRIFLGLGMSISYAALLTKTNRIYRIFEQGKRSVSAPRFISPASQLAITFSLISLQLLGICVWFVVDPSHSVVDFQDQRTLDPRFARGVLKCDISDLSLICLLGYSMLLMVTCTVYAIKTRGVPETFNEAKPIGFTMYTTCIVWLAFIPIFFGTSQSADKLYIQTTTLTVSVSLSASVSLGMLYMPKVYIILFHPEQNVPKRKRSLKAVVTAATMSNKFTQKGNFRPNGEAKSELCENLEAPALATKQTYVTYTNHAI

The assay addresses T1, human mGluR4 (Homo sapiens, UniProt Q14833).
T1 construct: expressed in transfected cells
Nature of the assay: Fluorescent cell based Ca2+ mobilization assay (FLIPR) on HEK-293 cells expressing human mGluR4. To be noted: positive allosteric modulation, HEK-293 cells expressing hmGluR4, stimulated by EC25 glutamate; mean of at least three independent experiments in duplicate; read-out: Ca^2+ Flux* (mean EC50). From the text:
mGluR4 Assay on HEK-Expressing Human mGluR4
The compounds of the present invention are positive allosteric modulators of mGluR4 receptor. Their activity was examined on recombinant human mGluR4a receptors by detecting changes in intracellular Ca^2+ concentration, using the fluorescent Ca^2+-sensitive dye Fluo4-(AM) and a Fluorometric Imaging Plate Reader (FLIPR, Molecular Devices, Sunnyvale, Calif.).
The cDNA encoding the human metabotropic glutamate receptor (hmGluR4), (accession number NM_000841.1, NCBI Nucleotide database browser), was subcloned into an expression vector containing also the hygromycin resistance gene. In parallel, the cDNA encoding a G protein allowing redirection of the activation signal to intracellular calcium flux was subcloned into a different expression vector containing also the puromycin resistance gene. Transfection of both these vectors into HEK293 cells with PolyFect reagent (Qiagen) according to supplier's protocol, and hygromycin and puromycin treatment allowed selection of antibiotic resistant cells which had integrated stably one or more copies of the plasmids. Positive cellular clones expressing hmGluR4 were identified in a functional assay measuring changes in calcium fluxes in response to glutamate or selective known mGluR4 orthosteric agonists and antagonists. HEK-293 cells expressing hmGluR4 were maintained in media containing DMEM, dialyzed Fetal Calf Serum (10%), Glutamax™ (2 mM), Penicillin (100 units/mL), Streptomycin (100 μg/mL), Geneticin (100 μg/mL) and Hygromycin-B (40 μg/mL) and puromycin (1 μg/mL) at 37° C./5% CO2.
Human mGluR4 HEK-293 cells were plated out 24 hours prior to FLIPR^384 assay in black-walled, clear-bottomed, poly-L-ornithine-coated 384-well plates at a density of 25,000 cells/well in a glutamine/glutamate free DMEM medium containing foetal bovine serum (10%), penicillin (100 units/mL) and streptomycin (100 μg/mL) at 37° C./5% CO2.
On the day of the assay, the medium was aspirated and the cells were loaded with a 3 μM solution of Fluo4-AM (LuBioScience, Lucerne, Switzerland) in 0.03% pluronic acid. After 1 hour at 37° C./5% CO2, the non incorporated dye was removed by washing cell plate with the assay buffer and the cells were left in the dark at room temperature for […] before testing. All assays were performed in a pH 7.4 buffered-solution containing 20 mM HEPES, 143 mM NaCl, 6 mM KCl, 1 mM MgSO4, 1 mM CaCl2, 0.125 mM sulfapyrazone and 0.1% glucose.
After 10 s of basal fluorescence recording, various concentrations of the compounds of the invention were added to the cells. Changes in fluorescence levels were first monitored for 180 s in order to detect any agonist activity of the compounds. Then the cells were stimulated by an EC25 glutamate concentration for an additional 110 s in order to measure enhancing activities of the compounds of the invention. EC25 glutamate concentration is the concentration giving 25% of the maximal glutamate response.
The concentration-response curves of representative compounds of the present invention were generated using the Prism GraphPad software (Graph Pad Inc, San Diego, USA). The curves were fitted to a four-parameter logistic equation: (Y=Bottom+(Top−Bottom)/(1+10^((Log EC50−X)*Hill Slope) allowing the determination of EC50 values.
The Table 4 below represents the mean EC50 obtained from at least three independent experiments of selected molecules performed in duplicate.
A general note: A change in cytosolic calcium serves as a functional read-out for many receptors and channels.
With `CN1CCc2sc(Nc3ncc(F)cn3)nc2-c2c[nH]nc21` [Compound 1-2, N-(5-Fluoropyrimidin-2-yl)-6-methyl-4,5,6,8-tetrahydropyrazolo[3,4-b]thiazolo[4,5-d]azepin-2-amine], the EC50 was 100 to 1000 nM.

As for `CCN1CCc2sc(Nc3nccc(C)n3)nc2-c2c[nH]nc21` [Compound 1-3, 6-Ethyl-N-(4-methylpyrimidin-2-yl)-4,5,6,8-tetrahydropyrazolo[3,4-b]thiazolo[4,5-d]azepin-2-amine], the EC50 is under 100 nM.

On to `Fc1cnc(Nc2nc3c(s2)CCN(CC2CC2)c2n[nH]cc2-3)nc1` [Compound 1-4, 6-(Cyclopropylmethyl)-N-(5-fluoropyrimidin-2-yl)-4,5,6,8-tetrahydropyrazolo[3,4-b]thiazolo[4,5-d]azepin-2-amine], for which the EC50 was under 100 nM.

`CC(C)N1CCc2sc(Nc3ncc(F)cn3)nc2-c2c[nH]nc21` [Compound 1-6, N-(5-Fluoropyrimidin-2-yl)-6-isopropyl-4,5,6,8-tetrahydropyrazolo[3,4-b]thiazolo[4,5-d]azepin-2-amine]: the EC50 was under 100 nM.

For `COCCN1CCc2sc(Nc3nccc(C)n3)nc2-c2c[nH]nc21` [Compound 1-7, 6-(2-Methoxyethyl)-N-(4-methylpyrimidin-2-yl)-4,5,6,8-tetrahydropyrazolo[3,4-b]thiazolo[4,5-d]azepin-2-amine], the EC50 was under 100 nM.

Turning to `Cc1nc(Nc2nc3c(s2)CCN(C)c2n[nH]cc2-3)ncc1F` [Compound 1-9, N-(5-Fluoro-4-methylpyrimidin-2-yl)-6-methyl-4,5,6,8-tetrahydropyrazolo[3,4-b]thiazolo[4,5-d]azepin-2-amine], the EC50 is 100 to 1000 nM.

As to `Cc1ccnc(Nc2nc3c(s2)CCN(CC2CCCO2)c2n[nH]cc2-3)n1` (centres unmarked) [Compound 1-10, N-(4-Methylpyrimidin-2-yl)-6-((tetrahydrofuran-2-yl)methyl)-4,5,6,8-tetrahydropyrazolo[3,4-b]thiazolo[4,5-d]azepin-2-amine], the EC50 was under 100 nM.

For the molecule `COCCN1CCc2sc(Nc3ncc(F)cn3)nc2-c2c[nH]nc21` [Compound 1-12, N-(5-Fluoropyrimidin-2-yl)-6-(2-methoxyethyl)-4,5,6,8-tetrahydropyrazolo[3,4-b]thiazolo[4,5-d]azepin-2-amine], the EC50 was under 100 nM.

As for `COCCN1CCc2sc(Nc3cccc(C)n3)nc2-c2c[nH]nc21` [Compound 1-13, 6-(2-Methoxyethyl)-N-(6-methylpyridin-2-yl)-4,5,6,8-tetrahydropyrazolo[3,4-b]thiazolo[4,5-d]azepin-2-amine], the EC50 is under 100 nM.

`Cc1ccnc(Nc2nc3c(s2)CCN(Cc2ccn(C)n2)c2n[nH]cc2-3)n1` [Compound 1-16, 6-((1-Methyl-1H-pyrazol-3-yl)methyl)-N-(4-methylpyrimidin-2-yl)-4,5,6,8-tetrahydropyrazolo[3,4-b]thiazolo[4,5-d]azepin-2-amine]: the EC50 was under 100 nM.

For `Cc1ccnc(Nc2nc3c(s2)CCN(CC(=O)N(C)C)c2n[nH]cc2-3)n1` [Compound 1-17, N,N-Dimethyl-2-(2-(4-methylpyrimidin-2-ylamino)-4,5-dihydropyrazolo[3,4-b]thiazolo[4,5-d]azepin-6(8H)-yl)acetamide], the EC50 fell in the range of 100 to 1000 nM.

`COCCN1CCc2sc(Nc3nccc(OC)n3)nc2-c2c[nH]nc21` [Compound 1-18, 6-(2-Methoxyethyl)-N-(4-methoxypyrimidin-2-yl)-4,5,6,8-tetrahydropyrazolo[3,4-b]thiazolo[4,5-d]azepin-2-amine]: the EC50 was under 100 nM.

As for `COCCN1CCc2sc(Nc3nsc(C)n3)nc2-c2c[nH]nc21` [Compound 1-19, 6-(2-Methoxyethyl)-N-(5-methyl-1,2,4-thiadiazol-3-yl)-4,5,6,8-tetrahydropyrazolo[3,4-b]thiazolo[4,5-d]azepin-2-amine], the EC50 was under 100 nM.

Consider `OCCN1CCc2sc(Nc3ncc(F)cn3)nc2-c2c[nH]nc21` [Compound 1-20, 2-(2-(5-Fluoropyrimidin-2-ylamino)-4,5-dihydropyrazolo[3,4-b]thiazolo[4,5-d]azepin-6(8H)-yl)ethanol], for which the EC50 is 100 to 1000 nM.

Regarding `COCCN1CCc2sc(Nc3cccc(N)n3)nc2-c2c[nH]nc21` [Compound 1-21, N^2-(6-(2-Methoxyethyl)-4,5,6,8-tetrahydropyrazolo[3,4-b]thiazolo[4,5-d]azepin-2-yl) pyridine-2,6-diamine], the EC50 is under 100 nM.

Turning to `Cc1cc(CN2CCc3sc(Nc4ncc(F)cn4)nc3-c3c[nH]nc32)no1` [Compound 1-22, N-(5-Fluoropyrimidin-2-yl)-6-((5-methylisoxazol-3-yl)methyl)-4,5,6,8-tetrahydropyrazolo[3,4-b]thiazolo[4,5-d]azepin-2-amine], the EC50 was under 100 nM.

As to `Fc1cnc(Nc2nc3c(s2)CCN(Cc2ccccn2)c2n[nH]cc2-3)nc1` [Compound 1-26, N-(5-Fluoropyrimidin-2-yl)-6-(pyridin-2-ylmethyl)-4,5,6,8-tetrahydropyrazolo[3,4-b]thiazolo[4,5-d]azepin-2-amine], the EC50 was under 100 nM.

With `Fc1cnc(Nc2nc3c(s2)CCN(Cc2ccncc2)c2n[nH]cc2-3)nc1` [Compound 1-27, N-(5-Fluoropyrimidin-2-yl)-6-(pyridin-4-ylmethyl)-4,5,6,8-tetrahydropyrazolo[3,4-b]thiazolo[4,5-d]azepin-2-amine], the EC50 was under 100 nM.

Regarding `CS(=O)(=O)CCN1CCc2sc(Nc3ncc(F)cn3)nc2-c2c[nH]nc21` [Compound 1-28, N-(5-Fluoropyrimidin-2-yl)-6-(2-(methylsulfonyl)ethyl)-4,5,6,8-tetrahydropyrazolo[3,4-b]thiazolo[4,5-d]azepin-2-amine], the EC50 is under 100 nM.

Turning to `Fc1cnc(Nc2nc3c(s2)CCN(CCC(F)(F)F)c2n[nH]cc2-3)nc1` [Compound 1-29, N-(5-Fluoropyrimidin-2-yl)-6-(3,3,3-trifluoropropyl)-4,5,6,8-tetrahydropyrazolo[3,4-b]thiazolo[4,5-d]azepin-2-amine], the EC50 fell in the range of 100 to 1000 nM.

`Fc1cnc(Nc2nc3c(s2)CCN(CC(F)(F)F)c2[nH]ncc2-3)nc1` [Compound 1-30, N-(5-Fluoropyrimidin-2-yl)-6-(2,2,2-trifluoroethyl)-4,5,6,7-tetrahydropyrazolo[3,4-b]thiazolo[4,5-d]azepin-2-amine]: the EC50 lay within 100 to 1000 nM.

`Fc1cnc(Nc2nc3c(s2)CCN(C2CCOC2)c2n[nH]cc2-3)nc1` (centres unmarked) [Compound 1-31, N-(5-Fluoropyrimidin-2-yl)-6-(tetrahydrofuran-3-yl)-4,5,6,8-tetrahydropyrazolo[3,4-b]thiazolo[4,5-d]azepin-2-amine]: the EC50 was under 100 nM.

For the molecule `CNCCN1CCc2sc(Nc3ncc(F)cn3)nc2-c2c[nH]nc21` [Compound 1-32, N-(5-Fluoropyrimidin-2-yl)-6-(2-(methylamino)ethyl)-4,5,6,8-tetrahydropyrazolo[3,4-b]thiazolo[4,5-d]azepin-2-amine], the EC50 fell in the range of 1000 to 10000 nM.

In the case of `COCCCN1CCc2sc(Nc3ncc(F)cn3)nc2-c2c[nH]nc21` [Compound 1-33, N-(5-Fluoropyrimidin-2-yl)-6-(3-methoxypropyl)-4,5,6,8-tetrahydropyrazolo[3,4-b]thiazolo[4,5-d]azepin-2-amine], the concentration for a half-maximal effect (EC50) is under 100 nM.

In the case of `Fc1cnc(Nc2nc3c(s2)CCN(CC2CCCC2)c2n[nH]cc2-3)nc1` [Compound 1-36, 6-(Cyclopentylmethyl)-N-(5-fluoropyrimidin-2-yl)-4,5,6,8-tetrahydropyrazolo[3,4-b]thiazolo[4,5-d]azepin-2-amine], the EC50 is under 100 nM.

In the case of `Cc1ccnc(Nc2nc3c(s2)CCN(CC2CC2)c2n[nH]cc2-3)n1` [Compound 1-37, 6-(Cyclopropylmethyl)-N-(4-methylpyrimidin-2-yl)-4,5,6,8-tetrahydropyrazolo[3,4-b]thiazolo[4,5-d]azepin-2-amine], the EC50 was under 100 nM.

What is called EC50 is the concentration that produces a half-maximal response.
